Patent US20020041862A1 (priority 1999, published 2002)
“Also recorded” adds a separate entry of the source.

Columns and labels:
PrP^Sc in ScN2a cells [1] = biological target: T1, PrP^Sc in ScN2a cells (Mus musculus, UniProt P04925); settings: cited from earlier work
PrP^Sc in ScN2a cells [2] = biological target: T1, PrP^Sc in ScN2a cells; settings: cited from earlier work; remark: listed apart in the source
PrP^Sc in ScN2a cells [3] = biological target: T1, PrP^Sc in ScN2a cells; type: cell-based

T1 sequence (P04925 23-230 limits assumed): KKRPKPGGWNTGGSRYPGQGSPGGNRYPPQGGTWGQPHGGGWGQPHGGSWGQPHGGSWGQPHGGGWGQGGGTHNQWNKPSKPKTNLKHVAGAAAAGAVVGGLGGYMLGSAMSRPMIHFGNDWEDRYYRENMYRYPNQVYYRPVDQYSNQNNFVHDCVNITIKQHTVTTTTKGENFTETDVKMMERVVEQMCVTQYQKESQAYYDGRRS

In the case of `OCC(O)CO` [glycerol], the “reduction of pre-existing PrP^Sc levels” value (PrP^Sc in ScN2a cells [1]) is listed as “cannot reduce pre-existing PrP^Sc levels” and the “formation of PrP^Sc” value (PrP^Sc in ScN2a cells [2]) is listed as “inhibit the formation of new PrP^Sc”.
For `C[S+](C)[O-]` [DMSO, dimethyl sulfoxide], the “reduction of pre-existing PrP^Sc levels” value (PrP^Sc in ScN2a cells [1]) is listed as “cannot reduce pre-existing PrP^Sc levels” and the “formation of PrP^Sc” value (PrP^Sc in ScN2a cells [2]) is listed as “inhibit the formation of new PrP^Sc”.
For NH4Cl, the “effect of lysosomotropic agent on ability of PEI to eliminate PrP^Sc” value (PrP^Sc in ScN2a cells [3]) is listed as “failure of NH4Cl to affect PrP^Sc levels; also recorded: barely detectable amounts of PrP^Sc”, the “effect of lysosomotropic agent alone on PrP^Sc levels” value (PrP^Sc in ScN2a cells [1]) is listed as “have no effect on PrP^Sc levels” and the “formation of PrP^Sc” value (PrP^Sc in ScN2a cells [2]) is listed as “do not interfere with the formation of PrP^Sc”.
For `CC[C@@]1([C@@H]2O[C@@H]([C@H]3O[C@@](O)(CO)[C@H](C)C[C@@H]3C)C[C@@H]2C)CC[C@H]([C@]2(C)CC[C@]3(C[C@H](O)[C@@H](C)[C@@H]([C@@H](C)[C@@H](OC)[C@H](C)C(=O)O)O3)O2)O1` [monensin], the “formation of PrP^Sc” value (PrP^Sc in ScN2a cells [2]) is given as “do not interfere with the formation of PrP^Sc”.
For `CCN(CC)CCCC(C)Nc1ccnc2cc(Cl)ccc12` (centres unmarked) [chloroquine], the “effect of lysosomotropic agent on ability of PEI to eliminate PrP^Sc” value (PrP^Sc in ScN2a cells [3]) is listed as “blocked the ability of PEI to eliminate PrP^Sc; also recorded: clear bands for PrP^Sc”, the “effect of lysosomotropic agent alone on PrP^Sc levels” value (PrP^Sc in ScN2a cells [1]) is listed as “have no effect on PrP^Sc levels” and the “formation of PrP^Sc” value (PrP^Sc in ScN2a cells [2]) is listed as “do not interfere with the formation of PrP^Sc”.
